Measured values taken from article PMC3072031 (Analytical chemistry, 2010).

Assays:
Aβ(1–40) mAb = details: reported value; ref [41]; cited from earlier work
detection conjugate = format: binding; details: deduced from equation (1)

Aβ(1–40): amyloid-β peptide, purchased from American Peptide Inc.; endogenous peptide in human CSF samples
KD between the Aβ(1–40) mAb and Aβ(1–40), in words (Aβ(1–40) mAb): nanomolar level | KD deduced from Langmuir isotherm, in words (detection conjugate): nanomolar level

Aβ(1–42): 42-residue-long amyloid-β peptide, purchased from American Peptide Inc.; endogenous peptide in human CSF samples
KD deduced from Langmuir isotherm, in words (detection conjugate): nanomolar level
